Results published in US20240368112A1, “BENZYLTHIOPHENE DERIVATIVES” (Rosalind Franklin University of Medicine & Science, priority 2021, published 2024).

Tests used:
parental GBM cells = assay: Proliferation of parental (empty vector) GBM cells, Incucyte live cell analysis; format: cell-based; settings: parental (EV) GBM cells
MT300 GBM cells = assay: Antiproliferative activity, CellTiter Glo assay, MT300 GBM cells; format: cell-based; settings: 72 h, read-out: IC50 (proliferation)
MT330 glioma xenografts = assay: Orthotopic MT330 glioma xenografts in mice, bioluminescent imaging; format: in vivo; settings: 20 mg/Kg in DMSO, into the peritoneum three times per week, female mice, BLI
Method: BLI pictures were taken at Day 21.
In brief, 10^6 luciferase-expressing MT330 GBM cells were injected orthotopically into the brains of female […] mice. […] Tumor growth was monitored by BLI two times per week as we have previously described.

LN299 GBM cells = assay: Antiproliferative activity, CellTiter Glo assay, LN299 GBM cells; format: cell-based; settings: 72 h, unit misprinted as 'and', read-out: IC50 (proliferation)
MCF7 breast cancer cells = assay: MTS cell viability assay in MCF7 breast cancer cells; format: cell-based; settings: 72 hours treatment, concentration not given
Method: MTS assay was used to determine the cell viability for all compounds tested. Computational docking scores were used to evaluate potential for STAT 3 inhibition (FIG. 9 and Table 3). MCF7 breast cancer cells were grown until 80-90% confluence. Cells were then transferred to a Costar 96-well plate with about 3000 cells per well. Cells were incubated for 24 hours. After incubation cells were treated with appropriate compounds and concentration for 72 hours. Twenty microliters of MTS solution was added to each well and incubated for 2 hours. The plate was then analyzed using […].

STAT1 = STAT1 (Homo sapiens (Human), UniProt P42224); assay: IFN-induced STAT1 phosphorylation in GBM cells (western blotting); format: cell-based
STAT3-KO GBM cells = assay: Proliferation of STAT3-knockout GBM cells, Incucyte live cell analysis; format: cell-based
STAT3 = STAT3 (Homo sapiens (Human), UniProt P40763); assay: Inhibition of IFN-induced STAT3 phosphorylation in GBM cells (western blotting); format: cell-based
Chain of STAT3 (P40763 whole entry): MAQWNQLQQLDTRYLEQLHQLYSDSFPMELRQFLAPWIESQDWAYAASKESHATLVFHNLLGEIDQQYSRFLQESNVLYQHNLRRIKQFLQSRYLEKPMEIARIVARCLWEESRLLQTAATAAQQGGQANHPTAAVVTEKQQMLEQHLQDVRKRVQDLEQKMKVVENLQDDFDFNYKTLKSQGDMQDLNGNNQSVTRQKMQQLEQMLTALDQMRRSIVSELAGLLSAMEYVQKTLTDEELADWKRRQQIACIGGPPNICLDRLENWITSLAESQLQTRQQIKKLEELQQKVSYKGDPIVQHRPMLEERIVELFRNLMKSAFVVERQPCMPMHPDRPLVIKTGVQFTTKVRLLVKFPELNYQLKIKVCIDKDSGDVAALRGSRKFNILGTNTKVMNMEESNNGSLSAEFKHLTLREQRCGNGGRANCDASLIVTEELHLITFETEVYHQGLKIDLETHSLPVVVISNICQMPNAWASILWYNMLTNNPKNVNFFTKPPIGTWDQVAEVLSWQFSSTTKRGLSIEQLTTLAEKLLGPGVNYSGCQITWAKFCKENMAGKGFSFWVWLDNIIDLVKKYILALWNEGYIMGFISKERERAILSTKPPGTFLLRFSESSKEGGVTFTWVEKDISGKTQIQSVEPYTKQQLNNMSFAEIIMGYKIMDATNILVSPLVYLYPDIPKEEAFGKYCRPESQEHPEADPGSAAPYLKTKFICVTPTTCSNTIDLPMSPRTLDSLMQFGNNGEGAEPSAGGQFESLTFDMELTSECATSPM

Chain of STAT1 (P42224 whole entry): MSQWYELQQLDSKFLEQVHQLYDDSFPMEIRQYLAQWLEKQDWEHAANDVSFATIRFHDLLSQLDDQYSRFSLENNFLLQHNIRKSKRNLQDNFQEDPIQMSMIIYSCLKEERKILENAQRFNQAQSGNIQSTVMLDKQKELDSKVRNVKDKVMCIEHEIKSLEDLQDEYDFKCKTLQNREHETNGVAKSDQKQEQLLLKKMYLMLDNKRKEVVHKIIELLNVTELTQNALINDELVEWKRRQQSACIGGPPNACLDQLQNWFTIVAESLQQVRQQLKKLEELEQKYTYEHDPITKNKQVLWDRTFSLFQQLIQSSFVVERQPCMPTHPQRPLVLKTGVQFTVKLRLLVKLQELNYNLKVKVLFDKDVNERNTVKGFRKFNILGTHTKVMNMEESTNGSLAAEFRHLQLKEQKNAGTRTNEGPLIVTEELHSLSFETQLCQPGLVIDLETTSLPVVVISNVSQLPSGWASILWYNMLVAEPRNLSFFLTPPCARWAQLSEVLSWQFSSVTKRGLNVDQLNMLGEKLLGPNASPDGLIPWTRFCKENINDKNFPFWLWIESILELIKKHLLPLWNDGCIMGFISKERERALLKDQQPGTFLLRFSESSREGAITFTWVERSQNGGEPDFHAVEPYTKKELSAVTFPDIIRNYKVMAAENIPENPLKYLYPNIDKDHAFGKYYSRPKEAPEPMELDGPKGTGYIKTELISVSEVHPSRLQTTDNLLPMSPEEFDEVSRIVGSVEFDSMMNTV

| Effect on STAT1 phosphorylation (STAT1) | Compound | Antiproliferative effect (parental GBM cells) | IC50 (MT300 GBM cells) | Effect on orthotopic GBM tumor xenografts (MT330 glioma xenografts) | IC50 (LN299 GBM cells) | Percent inhibition (MCF7 breast cancer cells) | Antiproliferative effect (STAT3-KO GBM cells) | Inhibition of STAT3 phosphorylation (STAT3) |
| --- | --- | --- | --- | --- | --- | --- | --- | --- |
| no effect | N#Cc1cc(Cc2ccccc2)sc1NC(=O)COc1ccccc1 [Compound 1, N-(5-benzyl-3-cyanothiophen-2-yl)-2-phenoxyacetamide] | sensitive | 85 nM | markedly reduced | 95 nM | 28.06% | resistant |  |
| no effect | N#Cc1cc(Cc2ccccc2)sc1NC(=O)c1cc2ccccc2o1 [Compound 5, N-(5-benzyl-3-cyanothiophen-2-yl)benzofuran-2-carboxamide] |  |  |  |  | 65.67% |  | potently block STAT3 phosphorylation at submicromolar levels |
|  | N#Cc1cc(Cc2ccccc2)sc1NC(=O)COc1cccc(C(F)(F)F)c1 [Compound 6, N-(5-benzyl-3-cyanothiophen-2-yl)-2-(3-(trifluoromethyl)phenoxy)acetamide] |  |  |  |  | 51.00% |  |  |
| no effect | CC(C)(Oc1ccccc1)C(=O)Nc1sc(Cc2ccccc2)cc1C#N [Compound 7, N-(5-benzyl-3-cyanothiophen-2-yl)-2-methyl-2-phenoxypropanamide] |  |  |  |  | 23.33% |  | potently block STAT3 phosphorylation at submicromolar levels |
